In DBAASP one finds MIC data, which are given here for 7 molecules.

Some test systems named below: Streptococcus agalactiae; Pseudomonas aeruginosa; Candida albicans; Staphylococcus aureus; Escherichia coli AS1.349; Bacillus cereus AS1.126; Listeria monocytogenes; Escherichia coli; Enterobacter cloacae; Serratia marcescens; Klebsiella pneumoniae; Escherichia coli P4; Klebsiella aerogenes.
Holding throughout (test): ≥ marks a high value that may be exact or a test limit, other limits are often not marked, values filed in µg/mL are converted to µM
The test system of assay [1] is Escherichia coli ATCC 25922.
Assay [2] deals with Xanthomonas axonopodis pv. glycines ISBF 327.
Assay [3] relates to Acinetobacter calcoaceticus.
In assay [4] the test system is Klebsiella pneumoniae subsp. pneumoniae CGMCC 1.176.
Assay [5] has as its system Fusobacterium nucleatum CGMCC 1.2526.
The test system of assay [6] is Lactococcus lactis AS1.1690.
Assay [7] concerns Enterobacter cloacae CGMCC 1.58.
The test system of assay [8] is Streptococcus mutans CGMCC 1.2500.
In assay [9] the test system is Staphylococcus aureus AS1.72.
In assay [10] the test system is Candida albicans CMCC 98001.
Assay [11] concerns Lactobacillus acidophilus CGMCC 1.1854.
Assay [12] relates to Pseudomonas aeruginosa CGMCC 1.860.
Assay [13] has as its system Streptococcus sanguinis CGMCC 1.2497.
Assay [14] deals with Enterococcus faecalis CGMCC 1.595.
The subject of assay [15] is Enterococcus faecium CGMCC 1.2334.
Assay [16] has as its system Streptococcus salivarius CGMCC 1.2498.
Assay [17] deals with Klebsiella aerogenes CGMCC 1.876.
For assay [18], the system named is Staphylococcus aureus 007.
Assay [19] relates to Salmonella enterica subsp. enterica serovar Paratyphi A.
For assay [20], the system named is Staphylococcus epidermidis.
Assay [21] concerns Staphylococcus aureus A170.
Assay [22] concerns Staphylococcus aureus A172.
Assay [23] concerns Staphylococcus aureus ATCC 29213.
Assay [24] relates to Staphylococcus aureus ATCC 25023.
Assay [25] has as its system Acinetobacter baumannii CICC 22934.
In assay [26] the test system is Proteus mirabilis CICC 22931.
Assay [27] deals with Cronobacter sakazakii DPC 6440.
Assay [28] relates to Listeria monocytogenes LO28.

Values after ≈ are worked out from the molar mass of the structure shown.

What is called MIC is the least concentration at which growth counts as inhibited. On to `CC[C@H](C)[C@H](NC(=O)[C@H](C)NC(=O)[C@H](Cc1cnc[nH]1)NC(=O)[C@@H]1CCCN1C(=O)[C@@H](NC(=O)[C@H](CC(C)C)NC(=O)[C@H](CO)NC(=O)[C@H](CC(C)C)NC(=O)[C@@H](N)Cc1ccccc1)[C@@H](C)CC)C(=O)N[C@@H](CC(N)=O)C(=O)N[C@@H](C)C(=O)N[C@H](C(=O)N[C@@H](CO)C(=O)N[C@H](C(=O)N[C@@H](CC(C)C)C(=O)N[C@H](C(=O)N[C@@H](Cc1cnc[nH]1)C(=O)N[C@@H](Cc1cnc[nH]1)C(=O)N[C@@H](Cc1ccccc1)C(N)=O)C(C)C)[C@@H](C)O)C(C)C` [FLSLIPHAINAVSTLVHHF], for which the MIC is 15 µM (≈ 31.7 µg/mL) in assay [1]; at least 121 µM in assay [2]; 3.7 µM (≈ 7.83 µg/mL) in assay [3]; 1.9 µM (≈ 4.02 µg/mL) against Streptococcus agalactiae; 60.4 µM (≈ 128 µg/mL) in the assay on Pseudomonas aeruginosa; 15.1 µM (≈ 31.9 µg/mL) against Candida albicans. This molecule returned an MIC in the assay on Staphylococcus aureus of 7.6 µM (≈ 16.1 µg/mL).

Consider `CC[C@H](C)[C@H](N)C(=O)N[C@@H](CCCCN)C(=O)N[C@@H](CCCCN)C(=O)N[C@H](C(=O)N[C@H](C(=O)N[C@@H](CO)C(=O)N[C@@H](CCCCN)C(=O)N[C@H](C(=O)N[C@@H](CCCCN)C(=O)N[C@@H](CCCCN)C(=O)N[C@@H](CC(C)C)C(=O)N[C@@H](CC(C)C)C(N)=O)[C@@H](C)CC)C(C)C)[C@@H](C)CC` [IKKIVSKIKKLL], for which the MIC amounted to 6.25 µM (≈ 8.81 µg/mL) in assay [4]; 18.8 µM (≈ 26.4 µg/mL) in assay [5]; 3.12 µM (≈ 4.4 µg/mL) against Escherichia coli AS1.349; 3.12 µM (≈ 4.4 µg/mL) in [6]; 3.12 µM (≈ 4.4 µg/mL) in [7]; 12.5 µM (≈ 17.6 µg/mL) in assay [8]. Moreover, the MIC in assay [9] was found to be 3.12 µM (≈ 4.4 µg/mL); in assay [10] it was 12.5 µM (≈ 17.6 µg/mL); in [11], 25 µM (≈ 35.2 µg/mL); in the assay with Bacillus cereus AS1.126, 3.12 µM (≈ 4.4 µg/mL); in assay [12], 3.12 µM (≈ 4.4 µg/mL); in assay [13], 3.13 µM (≈ 4.41 µg/mL). The MIC in assay [14] worked out at 6.25 µM (≈ 8.81 µg/mL); in assay [15], 6.25 µM (≈ 8.81 µg/mL); in assay [16], 6.25 µM (≈ 8.81 µg/mL); in [17], 3.12 µM (≈ 4.4 µg/mL).

For the molecule `CC[C@H](C)[C@H](NC(=O)[C@@H]1CCCN1C(=O)[C@H](CC(C)C)NC(=O)[C@H](CC(C)C)NC(=O)[C@H](Cc1ccc(O)cc1)NC(=O)[C@H](CCCCN)NC(=O)[C@@H](N)CCCCN)C(=O)N[C@H](C(=O)NCC(=O)N[C@@H](CC(N)=O)C(=O)N[C@@H](CC(C)C)C(=O)N[C@@H](CC(C)C)C(=O)N[C@@H](CCCCN)C(=O)N[C@@H](CO)C(=O)N[C@@H](CC(C)C)C(=O)N[C@@H](CC(C)C)C(N)=O)C(C)C` [KKYLLPIVGNLLKSLL], the MIC in assay [18] was 5.52 µM (≈ 9.99 µg/mL); in assay [19], 11 µM (≈ 20 µg/mL); against Listeria monocytogenes, 5.52 µM (≈ 9.99 µg/mL); in assay [20], 3.86 µM (≈ 7 µg/mL); against Escherichia coli it was 11 µM (≈ 20 µg/mL); in [21], 11 µM (≈ 20 µg/mL). In addition, the MIC in assay [22] was found to be 13.8 µM (≈ 25 µg/mL).

With `CC[C@H](C)[C@H](NC(=O)[C@H](Cc1ccccc1)NC(=O)[C@H](CC(N)=O)NC(=O)[C@H](CCCCN)NC(=O)[C@H](CCCN=C(N)N)NC(=O)[C@H](C)NC(=O)[C@H](CCCCN)NC(=O)[C@H](Cc1c[nH]c2ccccc12)NC(=O)[C@@H](N)CCCCN)C(=O)N[C@@H](CCCCN)C(=O)NCC(=O)N[C@@H](CO)C(=O)N[C@@H](CO)C(=O)N[C@@H](CC(C)C)C(=O)NCC(=O)N[C@@H](Cc1c[nH]c2ccccc12)C(=O)N[C@@H](CC(C)C)C(=O)N[C@H](C(=O)N[C@@H](CCC(N)=O)C(=O)N[C@@H](CC(C)C)C(=O)N[C@@H](Cc1ccccc1)C(=O)N[C@@H](CCCN=C(N)N)C(=O)N[C@@H](CCCCN)C(=O)N[C@@H](CCCN=C(N)N)C(=O)O)[C@@H](C)CC` [KWKARKNFIKGSSLGWLIQLFRKR], the minimum inhibitory concentration (MIC) was 21.6 µM (≈ 64 µg/mL) in [23]; 15.3 µM (≈ 45.3 µg/mL) in the assay on Enterobacter cloacae; 15.3 µM (≈ 45.3 µg/mL) in assay [1]; at least 173 µM with Serratia marcescens; 15.3 µM (≈ 45.3 µg/mL) in the assay with Klebsiella pneumoniae; 43.2 µM (≈ 128 µg/mL) in the assay on Pseudomonas aeruginosa. The MIC amounted to 10.8 µM (≈ 32 µg/mL) in the assay on Escherichia coli P4, 21.6 µM (≈ 64 µg/mL) against Klebsiella aerogenes and 15.3 µM (≈ 45.3 µg/mL) with Escherichia coli.

As for `CC(C)C[C@H](NC(=O)[C@H](CCCN=C(N)N)NC(=O)[C@H](CC(C)C)NC(=O)[C@H](CC(C)C)NC(=O)[C@H](CC(C)C)NC(=O)[C@H](CCCCN)NC(=O)[C@H](CC(C)C)NC(=O)[C@@H](N)CCCN=C(N)N)C(N)=O` [RLKLLLRL], in assay [24], the MIC was at least 125 µM.

For `CC(C)C[C@H](NC(=O)CNC(=O)[C@H](Cc1ccccc1)NC(=O)[C@H](CCCN=C(N)N)NC(=O)[C@H](CCCN=C(N)N)NC(=O)[C@H](CC(C)C)NC(=O)[C@H](Cc1cnc[nH]1)NC(=O)[C@H](CCCN=C(N)N)NC(=O)CNC(=O)[C@@H](NC(=O)[C@H](C)NC(=O)[C@@H](N)CO)C(C)C)C(=O)N[C@@H](CCCN=C(N)N)C(=O)N[C@@H](CCCCN)C(=O)N[C@@H](Cc1cnc[nH]1)C(=O)N[C@@H](CCCN=C(N)N)C(=O)N[C@@H](CCCCN)C(=O)N[C@@H](Cc1cnc[nH]1)C(=O)O` [SAVGRHLRRFGLRKHRKH], the MIC was at least 100 µM in [4]; at least 100 µM in the assay with Escherichia coli AS1.349; 18.8 µM (≈ 41.5 µg/mL) in [6]; at least 100 µM in assay [7]; 9.38 µM (≈ 20.7 µg/mL) in assay [9]; 6.25 µM (≈ 13.8 µg/mL) with Bacillus cereus AS1.126. The minimal inhibitory concentration (MIC) in assay [12] was at least 100 µM; in [25] it was at least 100 µM; in [14] it was 12.5 µM (≈ 27.6 µg/mL); in assay [15] it was 12.5 µM (≈ 27.6 µg/mL); in assay [26], at least 100 µM; in [17], at least 100 µM.

`CC[C@H](C)[C@H](NC(=O)[C@@H](N)Cc1c[nH]c2ccccc12)C(=O)N[C@@H](CCC(N)=O)C(=O)N1CCC[C@H]1C(=O)N[C@@H](C)C(=O)N[C@H](C(=O)N[C@@H](CCCCN)C(=O)N[C@H](C(=O)N[C@H](C(=O)N1CCC[C@H]1C(=O)N[C@@H](Cc1ccc(O)cc1)C(=O)N[C@H](C(=O)N[C@@H](CCCN=C(N)N)C(=O)N[C@@H](Cc1ccc(O)cc1)C(=O)N[C@@H](CC(C)C)C(=O)O)C(C)C)[C@@H](C)CC)C(C)C)[C@@H](C)O` [WIQPATKVIPYVRYL]: the MIC was at least 156 µM in assay [27] and at least 39.1 µM in assay [28].
